Laboratory results from paper PMC7305075 (Cancer Chemotherapy and Pharmacology, 2020).
Like-named read-outs stand apart in the source and are kept apart here. Blank lines part the entries; values can stand above or below the compound they belong to.

Legend:
[1] = cited from earlier work
[2] = tested on: UGT1A9; conditions: cited from earlier work
[3] = in vitro study; ref [42]; cited from earlier work
[4] = tested on: UGT1A1; conditions: in vitro studies; ref [21]; cited from earlier work
[5] = tested on: UGT2B15; set-up: method as in Liu et al. [26]; conditions: in vitro, recombinant UDP-glucuronyl transferases and liver microsomes, paracetamol glucuronidation; ref Liu et al. [26]; cited from earlier work
[6] = Plasma pharmacokinetics of sorafenib and sorafenib N-oxide in rats (HPLC-UV, non-compartmental); type: in vivo, Wistar rats; conditions: mean ± SD (CV %)
Experimental: The experimental protocol assuming involvement of animals in this study was reviewed and approved by the Local Ethics Committee, Poznań, Poland (no 61/2017). All procedures were performed in accordance with the European Union regulations concerning the handling and use of laboratory animals. Adult male Wistar rats (weight 480–530 g) were used in the study. The animals were maintained under standard breeding conditions with a 12/12 h light–dark cycle (lights on at 06.00, lights off at 18.00) at constant room temperature (23 ± 2 °C), relative humidity of 55 ± 10% and given ad libitum access to food and water. The animals were allowed to acclimatise for a week before the beginning of the experiments. The rats were divided into three groups. […] To make sure that the animals received the entire dose of the drug, 1 mL of 10% DMSO was then administered to rinse the probe. 100 µL of blood was collected from each rat by cutting off a piece of his tail. The blood samples were collected into heparinised test tubes at the following time points: 0, 0.5, 1, 2, 3, 4, 5, 6, 7, 8, 10, 12, 24, 30, 48, 72, 96 h. […]
The maximum plasma concentration (Cmax) and the time to reach the Cmax (tmax) were derived directly from the observed plasma concentrations. […] The apparent plasma drug clearance (Cl/F) was calculated by dividing the dose (D) by the AUC0-∞. […]

[7] = set-up: method as in Karbownik et al. [36]–[38]; conditions: in vivo; ref Karbownik et al. [36]–[38]; cited from earlier work
[8] = set-up: method as in Karbownik et al. [36], [37]; conditions: ref Karbownik et al. [36], [37]; cited from earlier work
[9] = Plasma pharmacokinetics of paracetamol, paracetamol glucuronide and paracetamol sulphate in rats (HPLC-UV, non-compartmental); type: in vivo, Wistar rats; conditions: for Cmax / ka (absorption rate constant): plasma, mean ± SD (CV %)
Experimental: The experimental protocol assuming involvement of animals in this study was reviewed and approved by the Local Ethics Committee, Poznań, Poland (no 61/2017). All procedures were performed in accordance with the European Union regulations concerning the handling and use of laboratory animals. Adult male Wistar rats (weight 480–530 g) were used in the study. The animals were maintained under standard breeding conditions with a 12/12 h light–dark cycle (lights on at 06.00, lights off at 18.00) at constant room temperature (23 ± 2 °C), relative humidity of 55 ± 10% and given ad libitum access to food and water. The animals were allowed to acclimatise for a week before the beginning of the experiments. The rats were divided into three groups. […] To make sure that the animals received the entire dose of the drug, 1 mL of 10% DMSO was then administered to rinse the probe. 100 µL of blood was collected from each rat by cutting off a piece of his tail. The blood samples were collected into heparinised test tubes at the following time points: 0, 0.5, 1, 2, 3, 4, 5, 6, 7, 8, 10, 12, 24, 30, 48, 72, 96 h. […] All the blood samples were centrifuged at 2.880 g for 10 min at 4 °C.
Separation was achieved by isocratic elution of the mobile phase, comprising sodium sulphate 0.05 M pH 2.2 (adjusted with 85% orthophosphoric acid) and acetonitrile (93:7, v/v), at a flow rate of 1.0 mL/min through an BDS Hypersil® C18 column (150 mm × 4.6 mm, 5.0 μm particle size) (Thermo Electron Corporation®, Waltham, MA, USA). The total time of analysis for each run was 10 min. The column temperature was maintained at 25 °C, the UV detection wavelength was set at 254 nm and the injection volume was 50 μL. Theophylline was used as the internal standard (IS).
The maximum plasma concentration (Cmax) and the time to reach the Cmax (tmax) were derived directly from the observed plasma concentrations. The total area under the concentration–time curve (AUC) was estimated by the trapezoidal rule with extrapolation from time zero to infinity (AUC0-∞). The elimination half-life (t0.5) was estimated from ln2/kel. The apparent plasma drug clearance (Cl/F) was calculated by dividing the dose (D) by the AUC0-∞. The apparent volume of distribution (Vd/F) was estimated from D/(kel × AUC0-∞).

[10] = cited from earlier work; remark: listed apart in the source
[11] = set-up: method as in PMID 26739624; conditions: ref [24], cited from earlier work
[12] = in vitro, recombinant UDP-glucuronyl transferases and liver microsomes, paracetamol glucuronidation, ref Liu et al. [26]
[13] = single oral paracetamol 100 mg/kg b.w. + sorafenib 100 mg/kg b.w. (IS+PA group)
[14] = IS+PA group (with sorafenib) vs. IIIPA group
[15] = single oral paracetamol 100 mg/kg b.w. alone (IIIPA group)
[16] = analogous dose (100 mg/kg) orally, ref Mekjaruskul et al. [35]
[17] = single dose 100 mg/kg orally, ref Pingili et al. [34]

SMILES: CNC(=O)c1cc(Oc2ccc(NC(=O)Nc3ccc(Cl)c(C(F)(F)F)c3)cc2)ccn1 [Sorafenib]
- Cmax ([1]; ref Wang [27]): 230.86 ng/mL
- tmax ([1]; ref Wang [27]): 8.14 h
- Cmax ([1]; ref Wang [39]): 338 ng/mL
- inhibition of UGT1A9 ([2]; in vitro studies, ref [21]): particularly inhibits
- inhibition of UGT1A9 [2, 12]: inhibited
- binding to human plasma proteins [3]: 99.8%
- inhibition of UGT1A1 [4]: particularly inhibits
- inhibition of UGT2B15 [5]: inhibited

- tmax [6, 13]: 15.5 h
- tmax ([6]; single oral sorafenib 100 mg/kg b.w. alone (IIS group)): 16.3 h
SMILES: CNC(=O)c1cc(Oc2ccc(NC(=O)Nc3ccc(Cl)c(C(F)(F)F)c3)cc2)cc[n+]1[O-] [Sorafenib N-oxide, sorafenib N-oxide]

SMILES: CCN(CC)CCNC(=O)c1c(C)[nH]c(/C=C2\C(=O)Nc3ccc(F)cc32)c1C [sunitinib]
- decrease of the AUC0-∞ of paracetamol after administration of the TKI [7]: 68.19%
- drop of the Cmax of paracetamol after administration of the TKI [7]: 63.95%

SMILES: CS(=O)(=O)CCNCc1ccc(-c2ccc3ncnc(Nc4ccc(OCc5cccc(F)c5)c(Cl)c4)c3c2)o1 [lapatinib]
- increase in AUC0-t of the TKI on co-administration with paracetamol [8]: 240%
- increase in Cmax of the TKI on co-administration with paracetamol [8]: 184%
- decrease of the AUC0-∞ of paracetamol after administration of the TKI [7]: 48.8%
- drop of the Cmax of paracetamol after administration of the TKI [7]: 55.7%

- decrease in AUC0-∞ [9, 14]: 42%
- reduction in Cmax [9, 14]: 48%
- Cmax [9, 13]: 19830 ng/mL
- Cmax [9, 15]: 38380 ng/mL
SMILES: CC(=O)Nc1ccc(O[C@@H]2O[C@H](C(=O)O)[C@@H](O)[C@H](O)[C@H]2O)cc1 [Paracetamol glucuronide, paracetamol glucuronide]

- increase in AUC0-∞ [9, 14]: 71%
- increase in Cmax [9, 14]: 33%
- ka (absorption rate constant) [9, 13]: 2.09 ± 1.11 h⁻¹
- ka (absorption rate constant) [9, 15]: 2.35 ± 0.99 h⁻¹
SMILES: CC(=O)Nc1ccc(O)cc1 [Paracetamol]
- Cmax [10, 16]: 19100 ng/mL
- t0.5 [10, 16]: 21.29 min
- tmax [10, 16]: 1.0 h
- Cmax [10, 17]: 5040 ng/mL
- t0.5 [10, 17]: 266 min
- tmax [10, 17]: 1.16 h
- fraction conjugated with cysteine ([11]; metabolism in the liver): 3%
- fraction conjugated with glucuronic acid ([11]; metabolism in the liver): 60%
- fraction conjugated with sulphuric acid ([11]; metabolism in the liver): 30%
- fraction N-hydroxylated through cytochrome P-450 (CYP2E1) to NAPQI [11]: 5–10%

SMILES: C#Cc1cccc(Nc2ncnc3cc(OCCOC)c(OCCOC)cc23)c1 [erlotinib]
- increase in AUC0-t of the TKI on co-administration with paracetamol [8]: 31%
- increase in Cmax of the TKI on co-administration with paracetamol [8]: 88%
- decrease of the AUC0-∞ of paracetamol after administration of the TKI [7]: 35.5%
- drop of the Cmax of paracetamol after administration of the TKI [7]: 18.9%

SMILES: Cc1nc(Nc2ncc(C(=O)Nc3c(C)cccc3Cl)s2)cc(N2CCN(CCO)CC2)n1 [dasatinib]
- inhibition of UGT1A9 [2, 12]: inhibited
- inhibition of UGT2B15 [5]: inhibited
